# Data from patent US12011447B2, “Pharmaceutical composition for treating thyroid cancer comprising tyrosine kinase activity inhibitor as active ingredient” (Kyungpook National University Industry-Academic Cooperation …, priority 2017, dated 2024).
# Tested on: NIS (sodium iodide symporter)
# Test: Western blot of endogenous NIS protein (total, membrane, cytosolic)
# Type: cell-based, human
# Protocol: 8505C-PNIS-PCMV cells were treated with TKI-0266 and incubated for 24 hours, and then the cell pellet was washed twice with cold phosphate-buffered saline (hereinafter referred to as PBS). An RIPA buffer (Thermo Fisher Scientific, USA) containing a protease/phosphatase cocktail inhibitor kit (Thermo Fisher Scientific) was added to the cell pellet to lyse the cells. The lysed cells were gently vortexed three times at a time interval, and centrifuged at 13000xg at 4° C. to isolate a soluble protein. The isolated protein was quantified using a BCA protein assay kit (Thermo Fisher Scientific).
# Membrane protein and cytosolic protein were isolated using Mem-PET™ plus kit (Thermo Fisher scientific) according to the manufacturer's protocols. Briefly, the collected cell pellet was washed with a cell wash solution and centrifuged at 300xg for 5 minutes, and this washing and centrifugation process was repeated two times. After centrifugation, the supernatant was discarded, and a permeabilization buffer was added to the cell pellet, followed by vortexing. Thereafter, the cell pellet was left to stand at 4° C. for 10 minutes with continuous stirring. After centrifugation, the supernatant containing cytosolic protein was collected, and a solubilization buffer was added to the remaining cell pellet which was then left to stand at 4° C. for 10 minutes with continuous stirring. After centrifugation again at 300xg for 5 minutes, the membrane protein was transferred into a fresh tube.
# Equal amounts of proteins were separated by 10% SDS-PAGE (sodium dodecyl sulfate-polyacrylamide gel electrophoresis), and then the proteins were transferred to PVDF membranes (Millipore, USA). The PVDF membrane was blocked with 3% BSA (bovine serum albumin) in TBS containing Tween-20 (TBS-T) for 1 hour, and incubated with primary antibodies in 0.5% BSA overnight at 4° C. The next day, the PVDF membrane was incubated with HRP-conjugated secondary antibodies at room temperature for 1 hour, and washed three times with TBS-T. The protein bands were visualized using ECL detection reagent (GE Healthcare Life Sciences, Italy) and the Fusion FX chemiluminescence analyzer system (Vilber lourmat, France). […]
compound,measurement,setting,value
Cc1cc2c(N(C)C3CCCCC3)ncnc2s1 [TKI-0266],expression of endogenous NIS protein,"8505C-PNIS-PCMV cells, 24 hours, Western blot",significantly increased
same,treatment concentration with the highest NIS protein expression,"8505C-PNIS-PCMV cells, Western blot",12.5 µM
same,expression of cytosolic NIS protein,cytosolic protein fraction,uptick
same,expression of membrane NIS protein,membrane protein fraction,increased mainly in the cell membrane
